Results from US11519911B2, “ALX receptor ligands define a biochemical endotype for inflammation-based diseases” (THE BRIGHAM AND WOMEN'S HOSPITAL, INC., priority 2017, dated 2022).
Entries after “also recorded” stand apart in the source; their conditions may differ.

How the values were obtained:
ALX/FPR2 receptors (ALX) [1] = target: T1, ALX/FPR2 receptors (ALX) (Homo sapiens, UniProt P25090); settings: high affinity cognate receptors; reference (16); cited from earlier work
T1 sequence (P25090 1-351): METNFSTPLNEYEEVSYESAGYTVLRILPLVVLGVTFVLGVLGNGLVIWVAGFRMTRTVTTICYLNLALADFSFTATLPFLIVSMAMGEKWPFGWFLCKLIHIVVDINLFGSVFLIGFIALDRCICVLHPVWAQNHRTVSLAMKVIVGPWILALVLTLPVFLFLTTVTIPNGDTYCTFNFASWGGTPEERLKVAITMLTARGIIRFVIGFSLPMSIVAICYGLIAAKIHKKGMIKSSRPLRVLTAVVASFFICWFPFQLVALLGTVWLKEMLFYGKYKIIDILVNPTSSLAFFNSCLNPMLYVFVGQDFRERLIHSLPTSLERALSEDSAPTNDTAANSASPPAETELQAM

[2] = BALF ALX ligand levels after a single dose of intramuscular triamcinolone in asthma subjects; assay type: in vivo, human; settings: measured 3 to 6 weeks after, SA or NSA subjects
Description: Subjects 13 years of age and older with asthma and healthy control subjects were recruited between November 2012 and February 2015 by seven geographically dispersed, research centers in the USA. European Respiratory Society/American Thoracic Society guidelines were used to categorize subjects as SA or NSA (48). Control subjects were individuals who reported general health and were non-smokers with no history of lung disease, atopic disease or allergic rhinitis. BAL was performed with three 50 mL aliquots of warm saline, and BALF were recovered by hand suction. Subjects received intramuscular triamcinolone (1 mg/kg up to a maximum dose of 40 mg) and some subjects agreed to undergo a second bronchoscopy 3 to 6 weeks later and BAL samples were collected in the same manner. BAL cells were enumerated and differential leukocyte counts determined. Cell-free BALF supernatant was divided into several aliquots. One aliquot of BALF (1 ml) was directly mixed with iced methanol (2 ml, for 1:2, vol/vol) before storing at −80° C. The other aliquots were directly stored at −80° C. […]
LXA4 and 15-epi-LXA4 levels in the BALF were measured by ELISA (Neogen, Lexington, Ky.). […] SAA and ANXA1 levels were measured by ELISA in aliquots of BALF stored in the absence of methanol (SAA: Abazyme, Needham, Mass.; ANXA1: Cloud-Clone, Houston, Tex.). […]

ALX/FPR2 receptors (ALX) [3] = target: T1, ALX/FPR2 receptors (ALX); test: ALX-dependent in vitro reporter assay: IL-8 production by A549 cells expressing human ALX receptor (ELISA); assay type: cell-based; set-up: expressed in transfected cells; host or cells: A549 human lung epithelial cells, stably transfected
Description: FIG. 6 A-D. SAA and 15-epi-LXA4 signaling via ALX receptors regulates production of the neutrophil chemoattractant IL-8 A549 human epithelial cells expressing human ALX receptors (A549^hALX) were exposed to BALF from HD, NSA, or SA subjects (24 h, 37° C., 5% CO2) and IL-8 levels were measured in the cell-free supernatant by ELISA (see Methods). (A) Mean levels of LXA4, 15-epi-LXA4 and SAA in BALF from n=15 subjects used for A549^hALX cell incubations are shown in stacked bar graphs and the relative proportions are noted in pie charts. (B) IL-8 production by A549^hALX cells was measured after incubation with saline control or SAA (2.5 ng/ml or 10 ng/ml) for 24 hours. (C) IL-8 production by A549^hALX cells was measured after 24 hours of exposure to BALF from HD (n=3), NSA (n=6) or SA (n=5) and is expressed as an increase relative to saline controls. Incubations with BALF without an increase in IL-8 production relative to saline control were assigned a value of zero. (D) A549^hALX epithelial cells were exposed to BALF from subjects with endogenous levels that were LXA4^highSAA^low (n=5) or LXA4^lowSAA^high (n=6) followed by exposure to exogenous 15-epi-LXA4 (100 nM). % Inhibition of IL-8 production after 15-epi-LXA4 exposure was calculated. *p<0.05, ****p<0.001 by (B) one-way ANOVA (C) Kruskal-Wallis test and (D) Mann-Whitney test. ALX, airway lipoxin A4 receptor; LXA4, lipoxin A4; 15-epi-LXA4, 15-epimer lipoxin A4; SAA, serum amyloid A; HD, healthy donors; NSA, non-severe asthma; SA, severe asthma; IL-8, interleukin-8; BALF, bronchoalveolar lavage fluid.
To determine the functional relationship for these ALX receptor ligands, we next turned to an ALX-dependent in vitro reporter assay that we have previously qualified in chronic obstructive pulmonary disease (18). A549 lung epithelial cells were stably transfected to express the human ALX/FPR2 receptor (hALX). […]
A549 transfected to stably express the human ALX receptor were used (as in (18)). […] IL-8 levels in the supernatants were measured by ELISA (R&D). […]

CCCCC[C@H](O)/C=C/C=C\C=C\C=C\[C@@H](O)[C@@H](O)CCCC(=O)O [LXA4, Lipoxin A4]
Kd (ALX/FPR2 receptors (ALX) [1]): ~1 nM

C[C@]12C=CC(=O)C=C1CC[C@H]1[C@@H]3C[C@@H](O)[C@](O)(C(=O)CO)[C@@]3(C)C[C@H](O)[C@@]12F [triamcinolone]
Change in BALF levels of LXA4, 15-epi LXA4 and SAA [2]: did not result in discernible changes; also recorded: not significantly altered

15-epimer lipoxin A4 [15-epi-LXA4]
Inhibition of IL-8 production by A549^hALX cells conditioned with BALF (ALX/FPR2 receptors (ALX) [3]; exogenous 15-epi-LXA4 100 nM, cells exposed to BALF): inhibited A549^hALX cell IL-8 production
Inhibition of IL-8 production by A549^hALX cells conditioned with BALF from LXA4^lowSAA^high subjects (ALX/FPR2 receptors (ALX) [3]; exogenous 15-epi-LXA4 100 nM, compared with LXA4^highSAA^low BALF): maximal inhibition of IL-8 production
Kd (ALX/FPR2 receptors (ALX) [1]): ~1 nM

B1: SAA: acute phase protein, pro-inflammatory ALX peptide ligand; recombinant human SAA (Peprotech) (protein, UniProt P0DJI8 19-122, looked up)
Serum amyloid A-1 protein: RSFFSFLGEAFDGARDMWRAYSDMREANYIGSDKYFHARGNYDAAKRGPGGAWAAEVITDARENIQRFFGHGAEDSLADQAANEWGRSGKDPNHFRPAGLPEKY
IL-8 production by A549^hALX cells (ALX/FPR2 receptors (ALX) [3]; recombinant human SAA 0-10 ng/ml, 24 h, vs saline control): concentration-dependent (0-10 ng/ml) increase in IL-8 production
